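Grown in 96-well plates, cells were treated for 48 hours with each compound at five concentrations. Insufficient inhibition: endpoint recorded as highest concentration tested. At the GI50, growth is halved.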 Active and inactive are the calls of the source. Rule as the data show it: active = GI50 up to about 1.1 µM and inactive = higher.
Tests used:
Experiment in all cases: NCI anticancer screen, dose series, 48 h
[1] = system: CAKI-1
[2] = system: KM12
[3] = system: ACHN
[4] = system: HOP-92
[5] = system: TK-10
[6] = system: CCRF-CEM
[7] = system: OVCAR-8
[8] = system: 786-0
[9] = system: U-251
[10] = system: LOX IMVI
[11] = system: M14
[12] = system: NCI-H522
[13] = system: SW-620
[14] = system: RXF 393
[15] = system: A549
[16] = system: NCI-H226
[17] = system: UO-31
[18] = system: SK-MEL-5
[19] = system: MDA-MB-231

Measured: GI50

COc1cc(CCc2ccncc2)cc(OC)c1OC
inactive: [1] > 100 µM | [2] > 100 µM | [3] > 100 µM | [4] > 100 µM | [5] > 100 µM | [6] > 100 µM | [7] > 100 µM | [8] > 100 µM | [9] > 100 µM | [10] > 100 µM | [11] > 100 µM | [12] > 100 µM | [13] > 100 µM | [14] > 100 µM | [15] > 100 µM | [16] > 100 µM | [17] > 100 µM | [18] > 100 µM

COC1CC(n2cc(F)c(N)nc2=O)OC1CO (configuration not stated)
inactive: [1] > 100 µM | [2] > 100 µM | [3] > 100 µM | [4] > 100 µM | [5] > 100 µM | [6] > 100 µM | [7] > 100 µM | [8] > 100 µM | [9] > 100 µM | [10] > 100 µM | [11] > 100 µM | [12] > 100 µM | [13] > 100 µM | [14] > 100 µM | [15] > 100 µM | [16] > 100 µM | [17] > 100 µM | [18] > 100 µM

C=C(C(=C)P(=S)(C(C)C)C(C)C)P(=S)(C(C)C)C(C)C
inactive: [1] > 100 µM | [2] > 100 µM | [3] > 100 µM | [4] > 100 µM | [5] > 100 µM | [6] > 100 µM | [7] > 100 µM | [8] > 100 µM | [9] > 100 µM | [10] > 100 µM | [11] > 100 µM | [12] > 100 µM | [13] > 100 µM | [14] > 100 µM | [15] > 100 µM | [16] > 100 µM | [17] > 100 µM | [18] > 100 µM

CC(C)c1ccccc1NC(=O)CCc1n[nH]c(=S)o1
inactive: [1] > 100 µM | [2] > 100 µM | [3] > 81.7 µM | [4] > 100 µM | [5] > 100 µM | [6] > 64.1 µM | [7] > 100 µM | [8] > 100 µM | [9] > 75.9 µM | [10] > 100 µM | [11] > 100 µM | [12] > 100 µM | [13] > 37.4 µM | [14] > 100 µM | [15] 99.8 µM | [16] > 100 µM | [17] > 100 µM | [18] > 100 µM

COc1ccccc1C(=O)c1c(N2CCCCC2)c(=O)c1=O
inactive: [1] > 100 µM | [2] 78.7 µM | [3] > 100 µM | [19] > 100 µM | [4] > 100 µM | [5] > 100 µM | [6] > 100 µM | [7] > 100 µM | [8] > 100 µM | [9] > 100 µM | [10] > 100 µM | [11] > 100 µM | [12] 59.3 µM | [13] > 100 µM | [14] > 100 µM | [15] > 100 µM | [16] > 100 µM | [17] > 100 µM | [18] > 100 µM

CSc1nc(C)cc(N(C)c2ccccc2)n1
inactive: [1] 33 µM | [2] 1.73 µM | [3] 58.6 µM | [19] 34.8 µM | [5] 33.5 µM | [6] 38 µM | [7] 34.8 µM | [8] 38.5 µM | [9] 31.4 µM | [10] 21.1 µM | [11] 30.1 µM | [12] 65.6 µM | [13] 54.5 µM | [14] 31 µM | [15] 29 µM | [16] 34.5 µM | [17] 5.33 µM | [18] 25.6 µM

CCOP(=O)(OCC)/C(C#N)=C/c1[nH]cnc1C
inactive: [1] > 100 µM | [2] > 100 µM | [3] > 100 µM | [19] > 100 µM | [4] > 100 µM | [5] > 100 µM | [6] > 100 µM | [7] > 100 µM | [8] > 100 µM | [9] > 100 µM | [10] > 100 µM | [11] > 100 µM | [12] > 100 µM | [13] > 100 µM | [14] > 100 µM | [15] > 100 µM | [16] > 100 µM | [17] > 100 µM | [18] > 100 µM

O=C(/C=C/c1ccc(Cl)cc1)c1ccncc1
inactive: [1] 30.8 µM | [2] 26 µM | [3] 35.9 µM | [4] > 100 µM | [5] 33.4 µM | [6] 43.7 µM | [7] > 100 µM | [8] 76.2 µM | [9] 44 µM | [10] 27.1 µM | [11] 36.1 µM | [12] 64.9 µM | [13] 78 µM | [14] 21.4 µM | [15] 58.5 µM | [16] > 100 µM | [17] 40.3 µM | [18] 53.2 µM

CCCNCCCCC(NC(C)=O)C(=O)NCc1ccccc1 (configuration not stated)
inactive: [1] > 100 µM | [2] > 100 µM | [3] > 100 µM | [4] > 100 µM | [5] > 100 µM | [6] > 100 µM | [7] > 100 µM | [8] > 100 µM | [9] > 100 µM | [10] > 100 µM | [11] > 100 µM | [12] > 100 µM | [13] > 100 µM | [14] > 100 µM | [15] > 100 µM | [16] > 100 µM | [17] > 100 µM | [18] > 100 µM

Oc1ccc2ccccc2c1NCn1nc(CCCCCCCCc2nn(CNc3c(O)ccc4ccccc34)c(=S)o2)oc1=S
inactive: [1] > 100 µM | [2] 28.9 µM | [3] > 100 µM | [19] > 100 µM | [4] > 100 µM | [5] > 100 µM | [8] > 100 µM | [9] > 100 µM | [11] 44.8 µM | [12] 35.1 µM | [13] > 100 µM | [15] > 100 µM | [16] > 100 µM | [17] > 100 µM | [18] 44.5 µM

CC(=O)c1ccc(-c2ccc(C(C)=O)s2)s1
inactive: [1] > 100 µM | [2] > 100 µM | [3] > 100 µM | [4] > 100 µM | [5] > 100 µM | [6] > 100 µM | [7] > 100 µM | [8] > 100 µM | [9] > 100 µM | [10] > 100 µM | [11] > 100 µM | [12] > 100 µM | [13] > 100 µM | [14] > 100 µM | [15] > 100 µM | [16] 19 µM | [17] > 100 µM | [18] > 100 µM
